The values below come from patent US20260209249A1, “NOVEL TRICYCLIC COMPOUND AS KRAS G12D INHIBITOR, AND USE THEREOF” (SK Biopharmaceuticals Co., priority 2022, published 2026).

In assay [1] the target is T1, GDP-KRAS G12D mutant protein (Homo sapiens, UniProt P01116, G12D).
T1 construct: purchased Daegu Gyeongbuk Medical Innovation Foundation (DGMIF), made to order
Briefly: Differential scanning fluorimetry (DSF) binding affinity to GDP-KRAS G12D mutant protein. Conditions: DSF thermal shift, 10 μM compound, 4 μg KRAS protein. The method in brief: (§1)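 Thermal shift ΔTm was measured at 10 μM compound over a 25–99 °C ramp (0.05 °C/s), read at 580 nm ex/623 nm em with SYPRO Orange (2×). The protein (4 μg) was preincubated with compound for 30 min at room temperature, in 50 mM HEPES pH 7.5 for GppNHp-KRAS G12D or in kit buffer for GDP-KRAS G12D.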
For orientation: Differential scanning fluorimetry follows unfolding on heating by fluorescence.

In assay [2] the target is T2, GppNHp-KRAS G12D mutant protein (Homo sapiens, UniProt P01116, G12D).
T2 construct: purchased Daegu Gyeongbuk Medical Innovation Foundation (DGMIF), made to order
Briefly: Differential scanning fluorimetry (DSF) binding affinity to GppNHp-KRAS G12D mutant protein. The following applies: DSF thermal shift, 10 μM compound, 4 μg KRAS protein, 50 mM HEPES (pH 7.5). The method in brief: as §1

Assay [3] has as its system KRAS G12D mutant pancreatic cancer cell line AsPC-1. Briefly: Cell viability assay using KRAS G12D mutant cells (AsPC-1, 3D culture, celltiter-glo 3D). It counts as cell-based. The following applies: Homo sapiens, ASPC1, 5th day after compound treatment. The procedure: Test Example 3: Cell Viability Assay Using KRAS G12D Mutant Cells
The KRAS G12D mutant pancreatic cancer cell line AsPC-1 was obtained from the Korean Cell Line Bank (KCLB) and maintained in 100-mm dishes or T75 (75 cm^2) flasks using RPM11640+10% fetal bovine serum (FBS)+1% Penicillin-Streptomycin medium. The cells were cultured at 37° C. with 5% CO2. The number of viable cells was counted using Countess (Invitrogen).
When AsPC-1 cells reached 85-100% confluence in the flask, the cells were harvested using 1× trypsin/EDTA solution, and seeded into a 96-well plate for 3D culture at 1000 cells/100 μL/well. The next day, the compounds were diluted ⅕ with DMSO from 10 μM or 50 μM to 0.0001 μM or 0.0006 μM and treated 1:1 (v/v) in the plate where the cells were seeded.
Cell culture was terminated on the 5th day after compound treatment, and cell viability at each concentration was measured using the celltiter-glo 3D cell viability assay kit.
Cell viability assays were normalized to 100% for the DMSO-treated group and expressed as a percentage of the number of viable cells when treated with the compound.
Cell viability %=(average RLU of group treated with test substance−average RLU of untreated group)/(average RLU of group treated with DMSO−average RLU of untreated group)×100
The data were modeled using GraphPad Prism 9 (GraphPad Software) by applying a nonlinear regression curve fit with a four-parameter sigmoidal dose-response curve to determine cell viability as a function of compound concentration. The 50% inhibitory concentration (IC50) corresponds to the concentration at which the curve intersects the midpoint of cell viability. The results of the inhibitory effect of the compounds according to one embodiment of the present application on the viability of KRAS G12D mutant cells are presented in Table 4.
A general note: ATP-based viability assays read luminescence as a measure of living cells.

In assay [4] the test system is ERK phosphorylation (pERK) induced by KRAS G12D mutation. Briefly: Inhibitory activity against ERK phosphorylation (pERK) induced by KRAS G12D mutation, immunofluorescence assay in AsPC-1 cells. It counts as cell-based. The following applies: Homo sapiens, ASPC1, 3 h drug treatment, pERK (Thr202/Tyr204) signal normalized to DAPI. The source says: Test Example 2: Measurement of Inhibitory Activity Against ERK Phosphorylation (pERK) Induced by KRAS G12D Mutation (Immunofluorescence Assay)
Immunofluorescence is a method used to detect specific substances within cells or tissues through antigen-antibody interactions, and allows for the identification of the presence or absence of specific proteins by using antibodies labeled with various fluorescent dyes. After a primary antibody that recognizes a specific protein selectively binds to the epitope, a fluorescent antibody (secondary antibody) is bound to the primary antibody.
It was confirmed as follows that the compounds according to an embodiment of the present application inhibit phosphorylation of extracellular signal-regulated kinases (Phospho-ERK, pERK) induced by KRAS G12D mutation.
AsPC-1 cells were seeded at a density of 10,000 cells/well in RPMI-1640 medium containing 10% FBS and 1% Penicillin-Streptomycin in 384-well plates (Perkinelmer, #6057300) and allowed to attach for 16 h. After the cells attached to the plate, the cells were treated with drugs at a maximum concentration of 10 μM with a 3-fold serial dilution. After 3 h of drug treatment, the medium was removed and the cells were treated with 50 μL of 4% formaldehyde (Biosesang, #PC2031-050-00) for 20 min and washed three times with 50 μL of phosphate buffered saline (PBS).
50 μL of PBS containing 0.3% Triton X-100 (Sigma, #T8787-250 mL) was added and reacted for 20 minutes to allow antibody penetration into cells, and then the plate was washed three times with 50 μL of PBS. To block nonspecific binding of antibodies to the plate, 50 μL of PBS containing 2% BSA (sigma, #A7906-500G) and 0.01% Tween-20 (Sigma, #P1379-500 mL) (hereinafter referred to as PBS-T) was added, and reacted at room temperature for 2 hours.
To detect pERK, the primary antibody (cell signaling, #9101) was diluted 1:500 in PBS-T containing 2% BSA, 50 μL was added, and the plate was stored in a refrigerator at 4° C. for 16 hours to react, followed by washing three times with 50 μL of PBS-T. To visualize the primary antibody, the secondary antibody, i.e., anti-rabbit-Alexa Fluor 488 (ThermoFisher, #A11008), was diluted 1:1000 in PBS-T containing 2% BSA, 50 μL was added, and after reaction at room temperature for 1 hour, the plate was washed three times with 50 μL of PBS-T. Next, to visualize the nuclei of cells, DAPI (Thermofisher, #62248, 1 mg/mL) was diluted 1:1000 in PBS-T, 50 μL each was added, reacted at room temperature for 10 minutes, and washed three times with 50 μL of PBS-T. 50 μL of PBS-T was added to each well, and the plate was read for fluorescence value using HCS equipment (MOLECULAR DEVICES/ImageXpress Micro).
Data analysis was performed by normalizing the pERK (Thr202/Tyr204) signal to the DAPI signal and calculating the percentage relative to the DMSO as a control. The IC50 value was determined by fitting a four-parameter dose-response curve using the GraphPad Prism software (version 8.4.3), and interpolating the concentration at which 50% inhibition occurred. The results of calculating the inhibitory efficacy of the compounds according to one embodiment of the present application against KRAS G12D mutation-induced pERK activity are shown in Table 3.

The IC50 is the point on the concentration scale where inhibition reaches its midpoint. Higher therefore signals weaker potency. On to `CCc1c(F)ccc2cc(O)cc(-c3cc4nc(OC[C@@]56CCCN5C[C@H](F)C6)nc(N5C[C@H]6CC[C@@H](C5)N6)c4n4ccnc34)c12` [Example 1, 4-(1-((1 R,5S)-3,8-diazabicyclo[3.2.1]octan-3-yl)-3-(((2R,7aS)-2-fluorotetrahydro-1H-pyrrolizin-7a(5H)-yl)methoxy)imidazo[1′,2′:1,6]pyrido[3,2-d]pyrimidin-6-yl)-5-ethyl-6-fluoronaphthalen-2-ol], for which the “GDP-KRAS G12D (ΔTmD, ° C.)” value in assay [1] was 10.05 °C. Further, the “GppNHp-KRAS G12D (ΔTmD, ° C.)” value in assay [2] is 4.27 °C. The IC50 was found to be 364 nM in assay [3] and 322 nM in assay [4].
Taken in the same sequence, the figures for `C#Cc1c(F)ccc2cc(O)cc(-c3cc4nc(OC[C@@]56CCCN5CC(=C(F)F)C6)nc(N5C[C@H]6CC[C@@H](C5)N6)c4n4ccnc34)c12` [Example 37, 4-(1-((1R,5S)-3,8-diazabicyclo[3.2.1]octan-3-yl)-3-(((S)-2-(difluoromethylene)tetrahydro-1H-pyrrolizin-7a(5H)-yl)methoxy)imidazo[1′,2′:1,6]pyrido[3,2-d]pyrimidin-6-yl)-5-ethynyl-6-fluoronaphthalen-2-ol] were 11.53 °C, 5.76 °C, 29 nM and 12 nM.
Taken in the same sequence, the figures for `C#Cc1c(F)ccc2cc(O)cc(-c3c(F)c4nc(OC[C@@]56CCCN5C/C(=C\F)C6)nc(N5C[C@H]6CC[C@@H](C5)N6)c4c4cn(C)nc34)c12` [Example 94, 4-(9-((1R,5S)-3,8-diazabicyclo[3.2.1]octan-3-yl)-5-fluoro-7-(((S,Z)-2-(fluoromethylene)tetrahydro-1H-pyrrolizin-7a(5H)-yl)methoxy)-2-methyl-2H-pyrazolo[4,3-f]quinazolin-4-yl)-5-ethynyl-6-fluoronaphthalen-2-ol] were 17.46 °C, 12.28 °C, 14 nM and 18 nM.
Taken in the same sequence, the figures for `Cn1cc2c(n1)c(-c1cc(O)cc3ccc(F)c(F)c13)c(F)c1nc(OC[C@@]34CCCN3C/C(=C\F)C4)nc(N3C[C@H]4CC[C@@H](C3)N4)c12` [Example 86, 4-(9-((1R,5S)-3,8-diazabicyclo[3.2.1]octan-3-yl)-5-fluoro-7-(((S,Z)-2-(fluoromethylene)tetrahydro-1H-pyrrolizin-7a(5H)-yl)methoxy)-2-methyl-2H-pyrazolo[4,3-f]quinazolin-4-yl)-5,6-difluoronaphthalen-2-ol] were 13.07 °C, 10.69 °C, 48 nM and 29 nM.
Consider `C#Cc1c(F)ccc2cc(N)cc(-c3cc4nc(OC[C@@]56CCCN5C[C@H](F)C6)nc(N5[C@@H]6CC[C@H]5CNC6)c4n4ccnc34)c12` [Example 14, 4-(1-((1R,5S)-3,8-diazabicyclo[3.2.1]octan-8-yl)-3-(((2R,7aS)-2-fluorotetrahydro-1H-pyrrolizin-7a(5H)-yl)methoxy)imidazo[1′,2′:1,6]pyrido[3,2-d]pyrimidin-6-yl)-5-ethynyl-6-fluoronaphthalen-2-amine], for which, in assay [1], the “GDP-KRAS G12D (ΔTmD, ° C.)” value was 7.98 °C. Further, the “GppNHp-KRAS G12D (ΔTmD, ° C.)” value in assay [2] was 4.73 °C. The half-inhibitory concentration (IC50) amounted to 53 nM in assay [3] and 75 nM in assay [4].
As for `C#Cc1c(F)ccc2cc(O)cc(-c3c(F)c4nc(OCC5(CN6CCC7(CC6)CC7(F)F)CC5)nc(N5C[C@H]6CC[C@@H](C5)N6)c4c4cc(C)oc34)c12` [Example 59, 4-(1-((1R,5S)-3,8-diazabicyclo[3.2.1]octan-3-yl)-3-((1-((1,1-difluoro-6-azaspiro[2.5]octan-6-yl)methyl)cyclopropyl)methoxy)-5-fluoro-8-methylfuro[3,2-n]quinazolin-6-yl)-5-ethynyl-6-fluoronaphthalen-2-ol], the “GDP-KRAS G12D (ΔTmD, ° C.)” value in assay [1] was 12.88 °C. Also, in assay [2], the “GppNHp-KRAS G12D (ΔTmD, ° C.)” value worked out at 6.06 °C. In addition, the results for the IC50 in assay [3] and in assay [4] were 69 nM and 54 nM, respectively.
Taken in the same sequence, the figures for `C#Cc1c(F)ccc2cc(O)cc(-c3cc4nc(OCC5(CN6CCOCC6)CC5)nc(N5C[C@H]6CC[C@@H](C5)N6)c4n4ccnc34)c12` [Example 7, 4-(1-((1 R,5S)-3,8-diazabicyclo[3.2.1]octan-3-yl)-3-((1-(morpholinomethyl)cyclopropyl)methoxy)imidazo[1′,2′:1,6]pyrido[3,2-d]pyrimidin-6-yl)-5-ethynyl-6-fluoronaphthalen-2-ol] were 8.57 °C, 3.24 °C, 109 nM and 269 nM.
In the same order, the values of `C#Cc1c(F)ccc2cc(O)cc(-c3c(F)c4nc(OC[C@@]56CCCN5C[C@H](F)C6)nc(N5C[C@H]6CC[C@@H](C5)N6)c4c4cn(C)nc34)c12` [Example 80, 4-(9-((1R,5S)-3,8-diazabicyclo[3.2.1]octan-3-yl)-5-fluoro-7-(((2R,7aS)-2-fluorotetrahydro-1H-pyrrolizin-7a(5H)-yl)methoxy)-2-methyl-2H-pyrazolo[4,3-n]quinazolin-4-yl)-5-ethynyl-6-fluoronaphthalen-2-ol] are 14.81 °C, 11.13 °C, 46 nM and 35 nM.
Consider `C#Cc1c(F)ccc2cc(O)cc(-c3cc4nc(OCC5(CN6CCOC[C@H]6C)CC5)nc(N5C[C@H]6CC[C@@H](C5)N6)c4n4ccnc34)c12` [Example 8, 4-(1-((1 R,5S)-3,8-diazabicyclo[3.2.1]octan-3-yl)-3-((1-(((R)-3-methylmorpholino)methyl)cyclopropyl)methoxy)imidazo[1′,2′:1,6]pyrido[3,2-d]pyrimidin-6-yl)-5-ethynyl-6-fluoronaphthalen-2-ol], for which the “GDP-KRAS G12D (ΔTmD, ° C.)” value in assay [1] was 9.02 °C. In addition, in assay [2], the “GppNHp-KRAS G12D (ΔTmD, ° C.)” value was 3.39 °C. Besides, the values for the IC50 in assay [3] and in assay [4] were 50 nM and 149 nM, respectively.
